From patent US5840684A, “Glycopeptide antibiotic derivatives” (Eli Lilly and Company, priority 1995, dated 1998)
In brackets after ≈: the same amount, converted by molar mass. Several values for one entry are separate records, joined by “and”; a condition that tells them apart may be missing. Equal values may be shown once.

Experiments:
[1] = tested on: Streptococcus pneumoniae; test: mouse protection, experimentally-induced infection; format: in vivo; conditions: mice infected with Streptococcus pneumoniae, two doses
[2] = tested on: Staphylococcus aureus 447; test: broth micro-dilution MIC; format: cell-based
Procedure: (§1) The MIC's were determined using a standard broth micro-dilution assay.

[3] = tested on: Entercoccus faecium 276; test: broth micro-dilution MIC; format: cell-based
Procedure: as §1

[4] = tested on: Staphylococcus aureus X400; test: broth micro-dilution MIC; format: cell-based
Procedure: as §1

[5] = tested on: Staphylococcus aureus 446; test: broth micro-dilution MIC; format: cell-based
Procedure: as §1

[6] = tested on: Staphylococcus aureus SA1199; test: broth micro-dilution MIC; format: cell-based
Procedure: as §1

[7] = tested on: Entercoccus faecium 180-1; test: broth micro-dilution MIC; format: cell-based
Procedure: as §1

[8] = tested on: Staphylococcus aureus X778; test: broth micro-dilution MIC; format: cell-based
Procedure: as §1

[9] = tested on: Streptococcus pyogenes C203; test: broth micro-dilution MIC; format: cell-based
Procedure: as §1

[10] = tested on: Staphylococcus aureus SA1199B; format: cell-based
Procedure: as §1

[11] = tested on: Staphylococcus aureus S13E; format: cell-based
Procedure: as §1

[12] = tested on: vancomycin-susceptible enterococci; test: broth micro-dilution, mean geometric MIC; format: cell-based, Enterococcus faecium and Enterococcus faecalis; conditions: enterococci, 24-hour incubation
[13] = tested on: Staphylococcus haemolyticus 105; test: broth micro-dilution MIC; format: cell-based
Procedure: (§2) The formula I compounds have in vitro and in vivo activity against Gram-positive pathogenic bacteria. The MIC's were determined using a standard broth micro-dilution assay.

[14] = tested on: Staphylococcus haemolyticus 415; test: broth micro-dilution MIC; format: cell-based
Procedure: as §2

[15] = tested on: Entercoccus faecium 2041; test: broth micro-dilution MIC; format: cell-based; conditions: Entercoccus faecium 2041
Procedure: as §2

[16] = tested on: Entercoccus faecium 180; test: broth micro-dilution MIC; format: cell-based; conditions: Entercoccus faecium 180
Procedure: as §2

[17] = tested on: Enterococcus gallinarum 245; test: broth micro-dilution MIC; format: cell-based; conditions: Enterococcus gallinarum 245
Procedure: as §2

[18] = tested on: Streptococcus pneumoniae P1; test: broth micro-dilution MIC; format: cell-based
Procedure: as §2

[19] = tested on: Staphylococcus epidermidis 270; test: broth micro-dilution MIC; format: cell-based
Procedure: as §2

[20] = tested on: vancomycin-resistant enterococci; test: broth micro-dilution, mean geometric MIC; format: cell-based, Enterococcus faecium and Enterococcus faecalis; conditions: enterococci, 24-hour incubation
[21] = tested on: Streptococcus pyogenes; test: mouse protection, experimentally-induced infection; format: in vivo; conditions: mice infected with Streptococcus pyogenes, two doses
[22] = tested on: Staphylococcus aureus SA1199A; test: broth micro-dilution MIC; format: cell-based
Procedure: as §1

[23] = tested on: Staphylococcus aureus 489; test: broth micro-dilution MIC; format: cell-based
Procedure: as §1

[24] = tested on: Staphylococcus aureus 491; test: broth micro-dilution MIC; format: cell-based
Procedure: as §1

[25] = tested on: Escherichia coli EC14; test: broth micro-dilution MIC; format: cell-based
Procedure: as §2

[26] = tested on: Haemophilus influenzae RD; test: broth micro-dilution MIC; format: cell-based; conditions: Haemophilus influenzae RD
Procedure: as §2

Compound	ED50 [1] [mg/kg/2]	MIC [2] [µg/mL]	MIC [3] [µg/mL]	MIC [4] [µg/mL]	MIC [5] [µg/mL]	MIC [6] [µg/mL]	MIC [7] [µg/mL]	MIC [8] [µg/mL]	MIC [9] [µg/mL]	MIC [10] [µg/mL]	MIC [11] [µg/mL]	mean geometric MIC, Vancomycin Sensitive Strains [12] [µg/mL]	MIC [13] [µg/mL]	MIC [14]	MIC [15] [µg/mL]	MIC [16] [µg/mL]	MIC [17] [µg/mL]	MIC [18] [µg/mL]	MIC [19]	mean geometric MIC, Vancomycin Resistant Strains [20] [µg/mL]	further results
CNC(CC(C)C)C(=O)NC1C(=O)NC(CC(N)=O)C(=O)NC2C(=O)NC3C(=O)NC(C(=O)NC(C(=O)O)c4cc(O)cc(O)c4-c4cc3ccc4O)C(OC3CC(C)(N)C(O)C(C)O3)c3ccc(c(Cl)c3)Oc3cc2cc(c3OC2OC(CO)C(O)C(O)C2OC2CC(C)(NCc3ccc(-c4ccc(F)cc4)cc3)C(O)C(C)O2)Oc2ccc(cc2Cl)C1O (stereo not shown) [Compound 211]	0.041	0.5 (≈ 0.281 µM)	≤ 0.06	0.5 (≈ 0.281 µM)	1 (≈ 0.563 µM)	0.5 (≈ 0.281 µM)	≤ 0.06	1 (≈ 0.563 µM)	≤ 0.06	1 (≈ 0.563 µM)	0.5 (≈ 0.281 µM)	0.024	0.5 (≈ 0.281 µM)	0.5 µg/mL (≈ 0.281 µM)	≤ 0.06	≤ 0.06	≤ 0.06	≤ 0.06	0.5 µg/mL (≈ 0.281 µM)	0.35	ED50 [21]: < 0.031 mg/kg/2
CN[C@H](CC(C)C)C(=O)N[C@H]1C(=O)N[C@@H](CC(N)=O)C(=O)N[C@H]2C(=O)N[C@H]3C(=O)N[C@H](C(=O)N[C@H](C(=O)O)c4cc(O)cc(O)c4-c4cc3ccc4O)[C@H](O[C@H]3C[C@](C)(N)[C@@H](O)[C@H](C)O3)c3ccc(c(Cl)c3)Oc3cc2cc(c3O[C@@H]2O[C@H](CO)[C@@H](O)[C@H](O)[C@H]2O[C@H]2C[C@](C)(NCc3ccc(OCc4ccc(Cl)cc4)cc3)[C@@H](O)[C@H](C)O2)Oc2ccc(cc2Cl)[C@H]1O [Compound 93]	0.012			≤ 0.06	2 (≈ 1.1 µM)	2 (≈ 1.1 µM)	≤ 0.06	1 (≈ 0.549 µM)	≤ 0.06	1 (≈ 0.549 µM)	1 (≈ 0.549 µM)	0.042	1 (≈ 0.549 µM)	1 µg/mL (≈ 0.549 µM)	≤ 0.06	≤ 0.06	1 (≈ 0.549 µM)	≤ 0.06	1 µg/mL (≈ 0.549 µM)	0.42	MIC [22]: ≤ 0.06 µg/mL; ED50 [21]: 0.074 mg/kg/2
CNC(CC(C)C)C(=O)NC1C(=O)NC(CC(N)=O)C(=O)NC2C(=O)NC3C(=O)NC(C(=O)NC(C(=O)O)c4cc(O)cc(O)c4-c4cc3ccc4O)C(OC3CC(C)(N)C(O)C(C)O3)c3ccc(c(Cl)c3)Oc3cc2cc(c3OC2OC(CO)C(O)C(O)C2OC2CC(C)(NCc3ccc(C(c4ccccc4)c4ccccc4)cc3)C(O)C(C)O2)Oc2ccc(cc2Cl)C1O (stereo not shown) [Compound 46]	0.156											0.50								0.71	ED50 [21]: 0.378 mg/kg/2
CNC(CC(C)C)C(=O)NC1C(=O)NC(CC(N)=O)C(=O)NC2C(=O)NC3C(=O)NC(C(=O)NC(C(=O)O)c4cc(O)cc(O)c4-c4cc3ccc4O)C(OC3CC(C)(N)C(O)C(C)O3)c3ccc(c(Cl)c3)Oc3cc2cc(c3OC2OC(CO)C(O)C(O)C2OC2CC(C)(NCc3ccc(CCc4ccccc4)cc3)C(O)C(C)O2)Oc2ccc(cc2Cl)C1O (stereo not shown) [Compound 100]	0.046				1 (≈ 0.56 µM)		≤ 0.06		≤ 0.06	0.5 (≈ 0.28 µM)		0.042	1 (≈ 0.56 µM)	2 µg/mL and 4 µg/mL	≤ 0.06	0.25 (≈ 0.14 µM)	2 (≈ 1.12 µM)	≤ 0.06	0.5 µg/mL and 0.25 µg/mL	0.71	ED50 [21]: 0.062 mg/kg/2
CNC(CC(C)C)C(=O)NC1C(=O)NC(CC(N)=O)C(=O)NC2C(=O)NC3C(=O)NC(C(=O)NC(C(=O)O)c4cc(O)cc(O)c4-c4cc3ccc4O)C(OC3CC(C)(N)C(O)C(C)O3)c3ccc(c(Cl)c3)Oc3cc2cc(c3OC2OC(CO)C(O)C(O)C2OC2CC(C)(NCc3ccc(-c4ccc([N+](=O)[O-])cc4)cc3)C(O)C(C)O2)Oc2ccc(cc2Cl)C1O (stereo not shown) [Compound 64]	< 0.031	0.5 (≈ 0.277 µM)	0.5 (≈ 0.277 µM)			1 (≈ 0.554 µM)	≤ 0.06	2 (≈ 1.11 µM)			2 (≈ 1.11 µM)	0.077		2 µg/mL (≈ 1.11 µM)	≤ 0.06		2 (≈ 1.11 µM)	≤ 0.06	0.5 µg/mL (≈ 0.277 µM)	0.71	MIC [22]: ≤ 0.06 µg/mL; ED50 [21]: 0.044 mg/kg/2
CC(C)CC(C(=O)NC1C(=O)NC(CC(N)=O)C(=O)NC2C(=O)NC3C(=O)NC(C(=O)NC(C(=O)O)c4cc(O)cc(O)c4-c4cc3ccc4O)C(OC3CC(C)(N)C(O)C(C)O3)c3ccc(c(Cl)c3)Oc3cc2cc(c3OC2OC(CO)C(O)C(O)C2OC2CC(C)(NCC3CC=CCC3)C(O)C(C)O2)Oc2ccc(cc2Cl)C1O)N(C)CC1CC=CCC1 (stereo not shown) [Compound 287]		4 (≈ 2.25 µM)	0.25 (≈ 0.14 µM)	0.5 (≈ 0.281 µM)	1 (≈ 0.562 µM)	0.5 (≈ 0.281 µM)	0.125 (≈ 0.0702 µM)	0.5 (≈ 0.281 µM)	≤ 0.06	0.25 (≈ 0.14 µM)	1 (≈ 0.562 µM)	1.1	8 (≈ 4.49 µM)	16 µg/mL (≈ 8.98 µM)	0.125 (≈ 0.0702 µM)	16 (≈ 8.98 µM)	0.5 (≈ 0.281 µM)	≤ 0.06	4 µg/mL (≈ 2.25 µM)	45	MIC [23]: 0.5 µg/mL (≈ 0.281 µM); MIC [22]: ≤ 0.06 µg/mL; MIC [24]: 1 µg/mL (≈ 0.562 µM); MIC [25]: > 64 µg/mL; MIC [26]: > 64 µg/mL
CC(C)CC(C(=O)NC1C(=O)NC(CC(N)=O)C(=O)NC2C(=O)NC3C(=O)NC(C(=O)NC(C(=O)O)c4cc(O)cc(O)c4-c4cc3ccc4O)C(OC3CC(C)(NCc4ccc(-c5ccc(Cl)cc5)cc4)C(O)C(C)O3)c3ccc(c(Cl)c3)Oc3cc2cc(c3OC2OC(CO)C(O)C(O)C2OC2CC(C)(NCc3ccc(-c4ccc(Cl)cc4)cc3)C(O)C(C)O2)Oc2ccc(cc2Cl)C1O)N(C)Cc1ccc(-c2ccc(Cl)cc2)cc1.O=C(O)C(F)(F)F (stereo not shown) [Compound 255]		> 64	> 64	> 64	64	> 64	16	> 64	16	> 64	> 64	32	> 64	> 64 µg/mL	16	> 64	> 64	1	> 64 µg/mL	64	MIC [23]: > 64 µg/mL; MIC [22]: 16 µg/mL; MIC [24]: > 64 µg/mL; MIC [25]: > 64 µg/mL; MIC [26]: > 64 µg/mL
CC(C)CC(C(=O)NC1C(=O)NC(CC(N)=O)C(=O)NC2C(=O)NC3C(=O)NC(C(=O)NC(C(=O)O)c4cc(O)cc(O)c4-c4cc3ccc4O)C(OC3CC(C)(N)C(O)C(C)O3)c3ccc(c(Cl)c3)Oc3cc2cc(c3OC2OC(CO)C(O)C(O)C2OC2CC(C)(NCc3ccc4c(c3)CCCC4)C(O)C(C)O2)Oc2ccc(cc2Cl)C1O)N(C)Cc1ccc2c(c1)CCCC2 (stereo not shown) [Compound 258]		1 (≈ 0.532 µM)	1 (≈ 0.532 µM)	2 (≈ 1.06 µM)	1 (≈ 0.532 µM)	2 (≈ 1.06 µM)	4 (≈ 2.13 µM)	1 (≈ 0.532 µM)	≤ 0.06	0.25 (≈ 0.133 µM)	2 (≈ 1.06 µM)	1	1 (≈ 0.532 µM)	2 µg/mL (≈ 1.06 µM)	0.5 (≈ 0.266 µM)	1 (≈ 0.532 µM)	1 (≈ 0.532 µM)	≤ 0.06	2 µg/mL (≈ 1.06 µM)	8	MIC [23]: 1 µg/mL (≈ 0.532 µM); MIC [22]: 2 µg/mL (≈ 1.06 µM); MIC [24]: 1 µg/mL (≈ 0.532 µM); MIC [25]: > 64 µg/mL; MIC [26]: > 64 µg/mL
